From the supplement of paper PMC11208160

Assay: recombinant barcode read abundance after kanamycin selection (control-corrected) (log10(CPM+1)); higher = more efficient recombination; sequences stand for … in AGTGCAGAGAAAATCGGCCAGTTTTCTCTGCCTGCAGTCCGCATGCCGT…AGATTTATGCAGCGGACTGCCTTTCTCCCAAAGTGATAAACCGGACAGTATCATGGACCGGTTTTCCCGGTAATCCGTATTTGCAAGGTTGGTTTCACT; site = the 11-nt target
Summary of the method: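 Recombination efficiency in this pooled E. coli screen uses counts per million of barcodes at recombinant junctions, averaged and corrected against the control. The reported form is log10(CPM+1). Two replicates were plated on chloramphenicol/ampicillin LB agar as control and two on chloramphenicol/ampicillin/kanamycin with 0.1 mM IPTG.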
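Note: IS621 recombinase and bridge RNA in Escherichia coli cells.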

Point of comparison: “TAGTCCTCTTGGGTTCTAACCTGTTGCTT (site TAGTCCTCTGA)”, “recombinant barcode read abundance (log10)” value 0.13. Against it:
- TAGTAGTCTTGGGTTCTAACCTGTTGCGT (site TAGTAGTCTAA) — higher, 0.509
- TAGTAGTCTTGGGTTCTAACCTGTTGCGT (site TAGTAGTCTAC) — higher, 2.79
- TAGTAGTCTTGGGTTCTAACCTGTTGCGT (site TAGTAGTCTAG) — higher, 0.729
- TAGTAGTCTTGGGTTCTAACCTGTTGCGT (site TAGTAGTCTAT) — higher, 2.34
- TAGTCATCTTGGGTTCTAACCTGTTGCTC (site TAGACATCTGA) — within 0.2 log units, 0.0065
- TAGTCATCTTGGGTTCTAACCTGTTGCTC (site TAGCCATCTGA) — within 0.2 log units, 0.252
- TAGTCATCTTGGGTTCTAACCTGTTGCTC (site TAGGCATCTGA) — within 0.2 log units, 0.243
- TAGTCATCTTGGGTTCTAACCTGTTGCTC (site TAGTCATCTGA) — higher, 1.41
- TAGTCCACTTGGGTTCTAACCTGTTGCGC (site CTCAAAGCTCG) — within 0.2 log units, 0.0907
- TAGTCCACTTGGGTTCTAACCTGTTGCGC (site TAGTCCACTGC) — higher, 1.98
- TAGTCCGCTTGGGTTCTAACCTGTTGCGG (site GAGTTCGCTCC) — within 0.2 log units, 0.00991
- TAGTCCGCTTGGGTTCTAACCTGTTGCGG (site TAGTCCGCTCC) — within 0.2 log units, 0.0626
- TAGTCCTCTTGGGTTCTAACCTGTTGCTT (site TAGTCCTCTAA) — higher, 1.22
- TAGTCCTCTTGGGTTCTAACCTGTTGCTT (site TAGTCCTCTCA) — within 0.2 log units, 0.173
- TAGTCCTCTTGGGTTCTAACCTGTTGCTT (site TAGTCCTCTTA) — within 0.2 log units, 0.0542
- TAGTCGACTTGGGTTCTAACCTGTTGCTT (site TAGACGACTAA) — higher, 0.652
- TAGTCGACTTGGGTTCTAACCTGTTGCTT (site TAGCCGACTAA) — within 0.2 log units, 0.307
- TAGTCGACTTGGGTTCTAACCTGTTGCTT (site TAGGCGACTAA) — within 0.2 log units, 0.0688
- TAGTCGACTTGGGTTCTAACCTGTTGCTT (site TAGTCGACTAA) — within 0.2 log units, 0.103
- TAGTCGTCTTGGGTTCTAACCTGTTGCCT (site TAGTCGTCTAA) — within 0.2 log units, 0.238
- TAGTCGTCTTGGGTTCTAACCTGTTGCCT (site TAGTCGTCTAG) — higher, 1.3
- TAGTCGTCTTGGGTTCTAACCTGTTGCTA (site TAGTCGTCTTA) — higher, 0.505
- TAGTCGTCTTGGGTTCTAACCTGTTGCTA (site TATTTGTCTTA) — higher, 0.438
- TAGTCTCCTTGGGTTCTAACCTGTTGCGT (site TAGTATCCTAC) — within 0.2 log units, 0.227
- TAGTCTCCTTGGGTTCTAACCTGTTGCGT (site TAGTCTCCTAC) — within 0.2 log units, 0.314
- TAGTCTCCTTGGGTTCTAACCTGTTGCGT (site TAGTGTCCTAC) — within 0.2 log units, 0.0837
- TAGTCTCCTTGGGTTCTAACCTGTTGCGT (site TAGTTTCCTAC) — within 0.2 log units, 0.135
- TAGTGAGCTTGGGTTCTAACCTGTTGCCG (site GCCCATCCTTA) — within 0.2 log units, 0.065
- TAGTGAGCTTGGGTTCTAACCTGTTGCCG (site TAGTGAGCTCG) — higher, 1.44
- TAGTGAGCTTGGGTTCTAACCTGTTGCCT (site TAGTGAGCTAG) — higher, 1.37
- TAGTGAGCTTGGGTTCTAACCTGTTGCCT (site TCGTGAGCTAG) — within 0.2 log units, 0.134
- TAGTGCTCTTGGGTTCTAACCTGTTGCCC (site TAGTGCTCTAG) — higher, 0.675
- TAGTGCTCTTGGGTTCTAACCTGTTGCCC (site TAGTGCTCTCG) — higher, 0.576
- TAGTGCTCTTGGGTTCTAACCTGTTGCCC (site TAGTGCTCTGG) — higher, 1.37
- TAGTGCTCTTGGGTTCTAACCTGTTGCCC (site TAGTGCTCTTG) — within 0.2 log units, 0.116
- TAGTGTCCTTGGGTTCTAACCTGTTGCCT (site TAGTGTACTAG) — within 0.2 log units, 0.126
- TAGTGTCCTTGGGTTCTAACCTGTTGCCT (site TAGTGTCCTAG) — higher, 1.11
- TAGTGTCCTTGGGTTCTAACCTGTTGCCT (site TAGTGTGCTAG) — higher, 0.521
- TAGTGTCCTTGGGTTCTAACCTGTTGCCT (site TAGTGTTCTAG) — higher, 0.405
- TAGTGTCCTTGGGTTCTAACCTGTTGCGT (site TAGTATCCTAC) — within 0.2 log units, 0.309
- TAGTGTCCTTGGGTTCTAACCTGTTGCGT (site TAGTCTCCTAC) — within 0.2 log units, 0.104
- TAGTGTCCTTGGGTTCTAACCTGTTGCGT (site TAGTGTCCTAC) — higher, 1.86
